{"source": "patent US20250262214A1", "about": "“INTERMITTENT DOSING REGIMEN FOR AZENOSERTIB IN TREATING CANCER” (Zeno Management, Inc., priority 2022, published 2025)", "tested_on": "MDA-MB-468 triple negative breast cancer tumor model", "experiment": "MDA-MB-468 triple negative breast cancer tumor model, tumor growth inhibition", "type": "in vivo", "conditions": "niraparib single agent, 50 mg/kg", "description": "In vivo exploration of dose and schedule of Azenosertib and PARPi (niraparib, talazoparib) including exploration of alternating dosing was evaluated."}
{"smiles": "NC(=O)c1cccc2cn(-c3ccc([C@@H]4CCCNC4)cc3)nc12", "note": "[niraparib, reference compound]", "values": [{"measurement": "tumor growth inhibition (TGI)", "result": 47.7, "unit": "%"}]}
